According to patent US8993606B2, “Oral formulations for treating metal overload” (FerroKin BioSciences, Inc., priority 2011, dated 2015):

Key:
[1] = tested on: pediatric subjects (aged 6-18 years) with documented transfusional iron overload; experiment: Safety: pediatric Phase 2 study; format: in vivo, human
Excerpt: A pediatric study is an ongoing Phase 2 multicenter, randomized, open-label study of pediatric subjects (aged 6-18 years) with documented transfusional iron overload in need of chelation therapy. 6 subjects (aged 12-<18 years) of a planned 30 subjects had been enrolled and administered investigational product. These subjects received a single dose for pharmacokinetic analysis with the option to continue in the 48-week study. […] Dosing was temporarily discontinued for 2 subjects; 1 subject for moderate decrease in neutrophil count, which was considered possibly related, and 1 for a mild upper respiratory tract infection that was considered not related. Treatment-emergent AEs were reported for 5 of the 6 subjects. Treatment emergent AEs considered possibly related to the investigational product include arthralgia (1), decreased neutrophil count (1), neutropenia (1), and headache (1).

healthy adult subjects = experiment: Safety: bioavailability study oral capsules versus oral solution in healthy subjects; format: in vivo
Experimental: This study was a study in healthy adult subjects designed to compare the bioavailability of Compound 1 when administered as an oral capsule or solution. 24 subjects were enrolled and 22 completed the study: Subjects received a single oral dose of 16 mg/kg of Compound 1 as an oral capsule or as a solution. […] Treatment-emergent AEs were reported for 14 of the 24 subjects receiving Compound 1 (58%). […] TEAEs included headache (3 subjects), fever (2 subjects), nausea (2 subjects), lethargy (2 subjects), and loss of appetite (1 subject).

COCCOCCOCCOc1cccc(C2=N[C@@](C)(C(=O)O)CS2)c1O [Compound 1, (S)-4,5-Dihydro-2-[2-hydroxy-3-(3,6,9-trioxadecyloxy)phenyl]-4-methyl-4-thiazolecarboxylate magnesium hydroxide]
possibly related TEAE arthralgia ([1]; 6 subjects): 1 | possibly related TEAE decreased neutrophil count ([1]; 6 subjects): 1 | possibly related TEAE headache ([1]; 6 subjects): 1 | possibly related TEAE neutropenia ([1]; 6 subjects): 1 | SAEs ([1]; 6 subjects aged 12-<18 years): No SAEs have been reported | subjects with treatment-emergent AEs ([1]; 6 subjects aged 12-<18 years): 5 of the 6 | subjects with treatment-emergent AEs (healthy adult subjects; 14 of the 24 subjects): 58% | TEAE fever (healthy adult subjects; 24 subjects): 2 subjects | TEAE headache (healthy adult subjects; 24 subjects): 3 subjects | TEAE lethargy (healthy adult subjects; 24 subjects): 2 subjects | TEAE loss of appetite (healthy adult subjects; 24 subjects): 1 subject | TEAE nausea (healthy adult subjects; 24 subjects): 2 subjects | deaths, SAEs, withdrawals as the result of an AE (healthy adult subjects; single oral dose 16 mg/kg): no deaths, no SAEs, and no withdrawals as the result of an AE | intensity of all AEs (healthy adult subjects; single oral dose 16 mg/kg): mild or moderate intensity | tolerability (healthy adult subjects; single oral dose 16 mg/kg, capsule or solution): well tolerated
